The results in this text go back to patent US20230129359A1, “MUSCARINIC RECEPTOR 4 ANTAGONISTS AND METHODS OF USE” (Neurocrine Biosciences, Inc., priority 2020, published 2023).

pKi: −log10 of the molar value.

In this assay the target is T1, human M4 receptor (Homo sapiens, UniProt P08173).
T1 construct: expressed in transfected cells; host or cells: CHO cells
T1 sequence (P08173 1-479): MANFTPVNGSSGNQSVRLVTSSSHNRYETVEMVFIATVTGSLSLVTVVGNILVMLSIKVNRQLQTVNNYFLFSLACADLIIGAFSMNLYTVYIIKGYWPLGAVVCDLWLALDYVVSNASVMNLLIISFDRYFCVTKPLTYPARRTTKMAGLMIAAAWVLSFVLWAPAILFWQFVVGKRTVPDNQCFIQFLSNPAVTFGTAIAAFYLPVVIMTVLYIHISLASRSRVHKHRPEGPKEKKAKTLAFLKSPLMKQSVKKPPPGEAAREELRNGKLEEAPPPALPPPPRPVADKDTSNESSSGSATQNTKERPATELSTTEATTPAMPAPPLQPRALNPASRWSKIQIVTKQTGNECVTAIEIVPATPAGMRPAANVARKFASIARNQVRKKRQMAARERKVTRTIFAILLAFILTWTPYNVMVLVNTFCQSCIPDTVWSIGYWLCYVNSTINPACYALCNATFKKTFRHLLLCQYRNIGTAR
In words: Radioligand ([3H]N-methylscopolamine) binding assay, membranes from CHO cells expressing human M4 receptor. The note with it: Ki against human M4 receptor; membranes from CHO cells; tritiated N-methylscopolamine 1.5 nM; read-out: K. The essentials: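 Competition binding used CHO-cell membranes expressing human M4 with 1.5 nM [3H]N-methylscopolamine and twelve compound concentrations ([…]). Incubation was 90 minutes at 37 °C in 50 mM HEPES, 100 mM NaCl, 5 mM MgCl2, 1 mM EDTA, pH 7.4. Bound ligand was collected by filtration onto PEI-treated glass fibre for Ki.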
For `C[C@@H]1CN(c2cnc(C(F)(F)F)cn2)C[C@@H](C)N1C(=O)NC1CC2(C1)CN(Cc1ccc(Cl)cc1)C2` [Compound 259, (2R,6R)-N-{2-[(4-chlorophenyl)methyl]-2-azaspiro[3.3]heptan-6-yl}-2,6-dimethyl-4-[5-(trifluoromethyl)pyrazin-2-yl]piperazine-1-carboxamide], the pKi was 6.00 to 7.00.
Under `C[C@@H]1CN(c2cnc(C(F)(F)F)cn2)[C@@H](C)CN1C(=O)NC1CC2(C1)CN(Cc1ccc(Cl)cc1)C2` [Compound 260, (2R,5S)-N-{2-[(4-chlorophenyl)methyl]-2-azaspiro[3.3]heptan-6-yl}-2,5-dimethyl-4-[5-(trifluoromethyl)pyrazin-2-yl]piperazine-1-carboxamide] stands 7.00 to 8.00; under `C[C@@H]1CN(c2cnc(C(F)(F)F)cn2)CCN1C(=O)NC1CC2(C1)CN(Cc1ccc(Cl)cc1)C2` [Compound 261, (2R)-N-{2-[(4-chlorophenyl)methyl]-2-azaspiro[3.3]heptan-6-yl}-2-methyl-4-[5-(trifluoromethyl)pyrazin-2-yl]piperazine-1-carboxamide], 7.00 to 8.00.
As to `C[C@@H]1CN(c2ncc(C(F)(F)F)cn2)[C@@H](C)CN1C(=O)NC1CC2(C1)CN(Cc1ccc(F)cc1)C2` [Compound 265, (2R,5S)-N-{2-[(4-fluorophenyl)methyl]-2-azaspiro[3.3]heptan-6-yl}-2,5-dimethyl-4-[5-(trifluoromethyl)pyrimidin-2-yl]piperazine-1-carboxamide], the pKi was 7.00 to 8.00.
In the case of `C[C@@H]1CN(c2ncc(C(F)(F)F)cn2)CCN1C(=O)NC1CC2(C1)CN(Cc1ccc(F)cc1)C2` [Compound 266, (2R)-N-{2-[(4-fluorophenyl)methyl]-2-azaspiro[3.3]heptan-6-yl}-2-methyl-4-[5-(trifluoromethyl)pyrimidin-2-yl]piperazine-1-carboxamide], the pKi is 6.00 to 7.00.
In the case of `C[C@@H]1CN(c2cnc(C(F)(F)F)cn2)C[C@H](C)N1C(=O)NC1CC2(C1)CN(Cc1ccc(F)cc1)C2` [Compound 267, (2R,6S)-N-{2-[(4-fluorophenyl)methyl]-2-azaspiro[3.3]heptan-6-yl}-2,6-dimethyl-4-[5-(trifluoromethyl)pyrazin-2-yl]piperazine-1-carboxamide], the pKi is 7.00 to 8.00.
For `C[C@@H]1CN(c2cnc(C(F)(F)F)cn2)[C@@H](C)CN1C(=O)NC1CC2(C1)CN(Cc1ccc(F)cc1)C2` [Compound 269, (2R,5S)-N-{2-[(4-fluorophenyl)methyl]-2-azaspiro[3.3]heptan-6-yl}-2,5-dimethyl-4-[5-(trifluoromethyl)pyrazin-2-yl]piperazine-1-carboxamide], the pKi was 7.00 to 8.00.
Turning to `C[C@@H]1CN(c2cnc(C(F)(F)F)cn2)CCN1C(=O)NC1CC2(C1)CN(Cc1ccc(F)cc1)C2` [Compound 270, (2R)-N-{2-[(4-fluorophenyl)methyl]-2-azaspiro[3.3]heptan-6-yl}-2-methyl-4-[5-(trifluoromethyl)pyrazin-2-yl]piperazine-1-carboxamide], the pKi is 7.00 to 8.00.
For `[2H]c1c([2H])c([2H])c(CN2CC3(CC(NC(=O)N4[C@H](C)CN(c5ncc(C(F)(F)F)cn5)C[C@@H]4C)C3)C2)c([2H])c1[2H]` [Compound 273, (2R,6S)-N-{2-[(^2H5)benzyl]-2-azaspiro[3.3]heptan-6-yl}-2,6-dimethyl-4-[5-(trifluoromethyl)pyrimidin-2-yl]piperazine-1-carboxamide], the pKi is more than 8.00.
Consider `[2H]c1c([2H])c([2H])c(C([2H])N2CC3(CC(NC(=O)N4[C@H](C)CN(c5ncc(C(F)(F)F)cn5)C[C@@H]4C)C3)C2)c([2H])c1[2H]` (stereo partly drawn) [Compound 274, (2R,6S)-2,6-dimethyl-N-{2-[(^2H5)phenyl(^2H1)methyl]-2-azaspiro[3.3]heptan-6-yl}-4-[5-(trifluoromethyl)pyrimidin-2-yl]piperazine-1-carboxamide], for which the pKi was more than 8.00.
On to `[2H]c1c([2H])c([2H])c(C([2H])([2H])N2CC3(CC(NC(=O)N4[C@H](C)CN(c5ncc(C(F)(F)F)cn5)C[C@@H]4C)C3)C2)c([2H])c1[2H]` [Compound 275, (2R,6S)-2,6-dimethyl-N-{2-[(^2H5)phenyl(^2H2)methyl]-2-azaspiro[3.3]heptan-6-yl}-4-[5-(trifluoromethyl)pyrimidin-2-yl]piperazine-1-carboxamide], for which the pKi was more than 8.00.
In the case of `C[C@@H]1CN(c2ncc(C(F)(F)F)cc2F)C[C@H](C)N1C(=O)OC1CC2(C1)CN(Cc1ccccc1)C2` [Compound 277, 2-benzyl-2-azaspiro[3.3]heptan-6-yl (2R,6S)-4-[3-fluoro-5-(trifluoromethyl)pyridin-2-yl]-2,6-dimethylpiperazine-1-carboxylate], the pKi was more than 8.00.
The same measure for `C[C@@H]1CN(c2ncc(Cl)cn2)C[C@H](C)N1C(=O)OC1CC2(C1)CN(Cc1ccccc1)C2` [Compound 278, 2-benzyl-2-azaspiro[3.3]heptan-6-yl (2R,6S)-4-(5-chloropyrimidin-2-yl)-2,6-dimethylpiperazine-1-carboxylate]: 7.00 to 8.00; for `Cc1nc(N2C[C@@H](C)N(C(=O)OC3CC4(C3)CN(Cc3ccccc3)C4)[C@@H](C)C2)ncc1Cl` [Compound 279, 2-benzyl-2-azaspiro[3.3]heptan-6-yl (2R,6S)-4-(5-chloro-4-methylpyrimidin-2-yl)-2,6-dimethylpiperazine-1-carboxylate]: 7.00 to 8.00; for `CCOc1ccc(N2C[C@@H](C)N(C(=O)NC3CC4(C3)CN(Cc3ccccc3)C4)[C@@H](C)C2)cc1` [Compound 284, (2R,6S)-N-{2-benzyl-2-azaspiro[3.3]heptan-6-yl}-4-(4-ethoxyphenyl)-2,6-dimethylpiperazine-1-carboxamide]: 6.00 to 7.00.
The same measure for `C[C@@H]1CN(c2ncc(C(F)(F)F)cn2)C[C@H](C)N1C(=O)NC1CC2(C1)CN(Cc1cccnc1Cl)C2` [Compound 291, (2R,6S)-N-{2-[(2-chloropyridin-3-yl)methyl]-2-azaspiro[3.3]heptan-6-yl}-2,6-dimethyl-4-[5-(trifluoromethyl)pyrimidin-2-yl]piperazine-1-carboxamide]: 6.00 to 7.00; for `C[C@@H]1CN(c2ncc(C(F)(F)F)cn2)C[C@H](C)N1C(=O)NC1CC2(C1)CN(Cc1ccc3occc3c1)C2` [Compound 298, (2R,6S)-N-[2-(1-benzofuran-5-ylmethyl)-2-azaspiro[3.3]heptan-6-yl]-2,6-dimethyl-4-[5-(trifluoromethyl)pyrimidin-2-yl]piperazine-1-carboxamide]: more than 8.00; for `C[C@@H]1CN(c2ncc(C(F)(F)F)cn2)C[C@H](C)N1C(=O)NC1CC2(C1)CN(Cc1cccnc1)C2` [Compound 303, (2R,6S)-2,6-dimethyl-N-[2-(pyridin-3-ylmethyl)-2-azaspiro[3.3]heptan-6-yl]-4-[5-(trifluoromethyl)pyrimidin-2-yl]piperazine-1-carboxamide]: 7.00 to 8.00.
For the compound `COc1ccc(CN2CC3(CC(NC(=O)N4[C@H](C)CN(c5ncc(C(F)(F)F)cn5)C[C@@H]4C)C3)C2)cn1` [Compound 305, (2R,6S)-N-{2-[(6-methoxypyridin-3-yl)methyl]-2-azaspiro[3.3]heptan-6-yl}-2,6-dimethyl-4-[5-(trifluoromethyl)pyrimidin-2-yl]piperazine-1-carboxamide], the pKi was 7.00 to 8.00.
On to `C[C@@H]1CN(c2ncc(C(F)(F)F)cn2)C[C@H](C)N1C(=O)NC1CC2(C1)CN(Cc1ccc(Cl)nc1)C2` [Compound 307, (2R,6S)-N-{2-[(6-chloropyridin-3-yl)methyl]-2-azaspiro[3.3]heptan-6-yl}-2,6-dimethyl-4-[5-(trifluoromethyl)pyrimidin-2-yl]piperazine-1-carboxamide], for which the pKi is 7.00 to 8.00.
Regarding `C[C@@H]1CN(c2ncc(C(F)(F)F)cn2)C[C@H](C)N1C(=O)NC1CC2(C1)CN(Cc1ccc[nH]1)C2` [Compound 309, (2R,6S)-2,6-dimethyl-N-[2-(1H-pyrrol-2-ylmethyl)-2-azaspiro[3.3]heptan-6-yl]-4-[5-(trifluoromethyl)pyrimidin-2-yl]piperazine-1-carboxamide], the pKi was 7.00 to 8.00.
In the case of `C[C@@H]1CN(c2ncc(C(F)(F)F)cn2)C[C@H](C)N1C(=O)NC1CC2(C1)CN(CCc1ccccc1)C2` [Compound 311, (2R,6S)-2,6-dimethyl-N-[2-(2-phenylethyl)-2-azaspiro[3.3]heptan-6-yl]-4-[5-(trifluoromethyl)pyrimidin-2-yl]piperazine-1-carboxamide], the pKi was 6.00 to 7.00.
Consider `C[C@@H]1CN(c2ncc(C(F)(F)F)cn2)C[C@H](C)N1C(=O)NC1CC2(C1)CN(CCCCc1ccccc1)C2` [Compound 312, (2R,6S)-2,6-dimethyl-N-[2-(4-phenylbutyl)-2-azaspiro[3.3]heptan-6-yl]-4-[5-(trifluoromethyl)pyrimidin-2-yl]piperazine-1-carboxamide], for which the pKi was 6.00 to 7.00.
As to `C[C@@H]1CN(c2ncc(C(F)(F)F)cn2)C[C@H](C)N1C(=O)NC1CC2(C1)CN(CC1=CCCCC1)C2` [Compound 313, (2R,6S)-N-[2-(cyclohex-1-en-1-ylmethyl)-2-azaspiro[3.3]heptan-6-yl]-2,6-dimethyl-4-[5-(trifluoromethyl)pyrimidin-2-yl]piperazine-1-carboxamide], the pKi is 7.00 to 8.00.
